Assay results from article PMC3479139, “Diverse Small Molecule Inhibitors of Human Apurinic/Apyrimidinic Endonuclease APE1 Identified from a Screen of a Large Public Collection” (PLoS ONE, 2012).

How the values were obtained:
HeLa cells = experiment: MMS potentiation assay (CellTiter Glo viability); assay type: cell-based, human; design: key: N.A., no activity observed; P, positive; I, inconclusive; N.T., not tested; conditions: for MMS Assay: potentiation of the genotoxic effect of methylmethane sulfonate
Protocol: HeLa cells were plated at 6000 cells/well in DMEM culture medium containing 10% FBS into white solid bottom 384-well cell culture plates. The plates were incubated at 37°C overnight for cell attachment, followed by media replacement. The fresh medium contained serial dilutions of compounds of interest in the presence (0.4 mM final) or absence of MMS. The plates were incubated for 24 h at 37°C. Cell viability was determined by luminescence detection after an addition of 15 µL of CellTiter Glo reagent (Promega, Madison, WI). Percent viability was calculated for each concentration of compound tested in duplicate by relating the corresponding luminescence to that of a negative DMSO vehicle control. MMS potentiation trends were defined as follows: negative (-), if cell viability in the compound-plus-MMS treatment was the same as that of the DMSO-plus-MMS control (overlapping dose-response curves); inconclusive (I), if the shift in the cell viability dose-response upon MMS inclusion relative to compound-alone was less than 30%; and positive (P), if the difference between the compound-plus-MMS and compound-alone curves was at least 30%, and maintained within at least a two-fold compound concentration span.
To examine the biological prospects of the top compounds, we tested their ability to inhibit APE1 DNA repair activity by assessing enhancement of MMS toxicity in mammalian cells. MMS creates methylated-base damage to genomic DNA, which, when excised by an alkylpurine DNA glycosylase, results in a high number of cytotoxic AP sites. We compared the viability of HeLa cells exposed to a dilution series of inhibitor alone to a combination of a fixed MMS concentration with the same dilution series of inhibitor by using a standard CellTiter Glo luminescence assay. This technique measures the number of viable cells in culture based on quantitation of the ATP present, which signals the presence of metabolically active cells. The assay was further optimized for 384-well plates, allowing a high-throughput testing of multiple hits at multiple concentrations, a scope of investigation previously impossible due to the very low throughput of the traditionally applied colony formation assay.
From the 223 compounds found positive in the gel-based APE1 assays, exclusion of the most promiscuous hits, that is, those that were both DNA binders and EndoIV-inhibitory, yielded a set of 170 compounds (Figure 3). This shortened group of hits was tested in the cell-based potentiation assay for their ability to dose-dependently enhance sensitivity of HeLa cells to the alkylating agent MMS.

APE1 [1] = molecular target: T1, APE1 (Homo sapiens, UniProt P27695); experiment: Fluorescence polarization (FP) displacement assay of APE1 binding to AP-DNA probe; conditions: read-out: FP IC50;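 also: TAMRA 5′-labeled duplex DNA with THF abasic site (5 nM) and APE1 (20 nM), Mg2+-free buffer, 15 min at room temperature, inhibition seen as lowered polarization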
T1 construct: made in house

E. coli Endo IV = molecular target: T2, E. coli Endo IV (Escherichia coli, UniProt P0A6C1); experiment: E. coli Endo IV profiling counterscreen; assay type: biochemical; conditions: read-out: EndoIV IC50;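 also: selectivity counterscreen of candidate APE1 inhibitors against the bacterial endonuclease Endo IV, run in the same assay format as the primary APE1 high-throughput screen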
T2 construct: made in house
From the text: In order to screen out nonselective compounds, such as non-specific DNA binders and inhibitors of related enzymes, we used a miniaturized ThO DNA displacement assay and a counterscreen against the bacterial endonuclease E. coli Endo IV, respectively, following the previously published protocols [21].
To probe the selectivity of the candidate APE1 inhibitors, we tested them against E. coli EndoIV [36], employing the same assay as used in the HTS.

[2] = molecular target: double-stranded 17-mer DNA fragment; experiment: ThO (Thiazole Orange) DNA displacement assay; assay type: binding; conditions: read-out: ThO-DNA binding IC50;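 also: miniaturized displacement of the intercalating dye from unlabeled duplex DNA, used to flag nonspecific DNA binders, chiefly intercalators, groove binders may be missed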
APE1 [3] = molecular target: T1, APE1; experiment: Fluorogenic kinetic qHTS APE1 incision assay (primary screen and retest of cherrypicked samples); assay type: biochemical;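 also: purified APE1 cleaving a fluorophore/dark-quencher labelled 17-mer duplex DNA bearing a tetrahydrofuran AP site, fluorescence rise followed kinetically over the first 2 min, inhibition normalized to controls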
APE1 [4] = molecular target: T1, APE1; experiment: Gel-based radiotracer (32P) APE1 incision assay; assay type: biochemical; design: concentration or dose not given beside the values; conditions: percent incision shown; entries 1-112;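 also: APE1 incision reactions ran 5 min at 37 °C, with cleaved product and intact substrate resolved electrophoretically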
APE1 [5] = molecular target: T1, APE1; experiment: Gel-based APE1 incision assay with fluorescence (TAMRA) detection; assay type: biochemical
Protocol: To test the compounds’ inhibitory activity after the primary screen, two assays designed to monitor the cleavage of substrate to product through electrophoretic separation were utilized. The radiotracer incision assay, utilizing a ^32P-labeled substrate, was performed essentially as described [21], [31], [32]. Incision reactions utilizing ^32P-labeled substrate were carried out for 5 min at 37°C. After the addition of an equal volume of stop buffer (0.05% bromophenol blue and xylene cyanol, 20 mM EDTA, 95% formamide), the substrate and product were separated on a standard polyacrylamide denaturing gel and quantified by PhosphorImager analysis [32]. […] APE1 cleavage of the substrate results in a 18-mer TAMRA-labeled fragment which was separated by a non-denaturing polyacrylamide gel electrophoresis and quantitated in a Gel Doc XR imaging system, BioRad (Hercules, CA). The advantage of this assay is that it can be used in a relatively high throughput mode with the inhibitors tested at a range of concentrations (0.17 µM to 125 µM was used here). APE1 (0.15 nM) was added to a reaction mixture of 20 µL containing assay buffer (40 mM HEPES pH 7.5, 50 mM NaCl, 1 mM MgCl2 and 2 mM DTT), and labeled ds DNA substrate (final 75 nM). The mixture was incubated at RT for 15 min, and the reaction was stopped by the addition 20 µL of 2X dye stop solution (10% glycerol, 20 mM EDTA and bromophenol blue). Then 10 µL of the mixture was resolved on 20% polyacrylamide gel in 1X Tris-borate EDTA running buffer at 250 V for 40 min.
To eliminate false positive hits, all 595 confirmed molecules were tested for their ability to inhibit APE1 incision activity using biochemical assays that involve electrophoretic separation of the substrate and cleavage product.

[6] = initial quantitative high-throughput screen, read-out: APE1 qHTS IC50
[7] = retest of cherrypicked sample, read-out: APE1 Retest IC50
[8] = entries 113-223: fluorophore detection, estimated IC50, read-out: Gel-based electrophoretic separation assay with fluorophore detection, estimated IC50 (column headed Radiotracer Assay (%Activity))
[9] = estimated IC50, fluorophore detection, entries 113-223, read-out: F-PAGE Assay IC50

T1 sequence (P27695 whole entry): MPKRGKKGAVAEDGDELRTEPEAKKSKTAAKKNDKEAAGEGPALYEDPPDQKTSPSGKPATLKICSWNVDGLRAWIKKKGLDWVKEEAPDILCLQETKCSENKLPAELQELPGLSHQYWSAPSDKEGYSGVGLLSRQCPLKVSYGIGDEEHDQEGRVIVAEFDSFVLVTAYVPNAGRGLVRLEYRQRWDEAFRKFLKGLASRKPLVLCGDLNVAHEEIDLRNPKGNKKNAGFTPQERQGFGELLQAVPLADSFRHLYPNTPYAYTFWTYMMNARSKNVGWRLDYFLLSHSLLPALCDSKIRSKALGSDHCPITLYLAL

Row | SMILES | MMS Assay (HeLa cells) | IC50 (APE1 [1]) [µM] | IC50 (E. coli Endo IV) [µM] | IC50 [2] [µM] | IC50 (APE1 [3]; [6]) [µM] | IC50 (APE1 [3]; [7]) [µM] | Radiotracer Assay (%Activity) (APE1 [4]) [%] | MMS Assay: potentiation of the genotoxic effect of methylmethane sulfonate (HeLa cells) | IC50 (APE1 [5]; [8]) [µM] | IC50 (APE1 [5]; [9]) [µM]
1 | O=C(O)c1cccc(-n2cccc2/C=C/[N+](=O)[O-])c1 [MLS000778420] | P | > 57 | > 57 | > 57 | 3.9 | 4.5 | 46 | – | – | –
2 | Cc1ccccc1CN1CCN(Cc2cc(=O)c3ccccc3[nH]2)CC1CCO (stereo not drawn) [MLS001000225] | – | – | > 57 | > 57 | – | – | – | I | – | –
3 | CC(C)C(=O)NC(C)C(c1cccs1)N1CCN(c2ccccc2)CC1 (stereo not drawn) [MLS000092582] | I | – | > 57 | > 57 | – | – | – | – | – | –
4 | COc1ccc(S(=O)(=O)NCCC(=O)NC2CCCCC2C)cc1[N+](=O)[O-] (stereo not drawn) [MLS002251710] | – | 20.4 | > 57 | > 57 | 26.7 | 16.2 | – | – | 11.2 | –
5 | CCN(CC(=O)Nc1c(F)cccc1F)C(=O)/C=C/c1ccc2ccccc2n1 [MLS001128172] | – | > 57 | > 57 | > 57 | 1.7 | 20.4 | – | – | – | 4
6 | Cc1ccc(C)c(S(=O)(=O)Nc2ccc3oc(C)c(C(=O)O)c3c2)c1 [MLS000948181] | – | > 57 | > 57 | > 57 | 13.4 | 20.4 | – | – | – | 2.8
7 | CN(CC(=O)Nc1cccc(F)c1)C(=O)c1cccc(-n2cccc2)c1 [MLS001071694] | – | 22.9 | > 57 | > 57 | 3.4 | 5.1 | – | – | – | 5
8 | O=C(O)c1ccc(-c2ccc(/C=c3/sc4nc5ccccc5n4c3=O)o2)cc1Cl [MLS001196440] | – | > 57 | > 57 | 40.8 | 9.5 | 7.3 | – | – | – | 7.1
9 | Cn1cnnc1SCC(=O)Nc1ncc([N+](=O)[O-])s1 [MLS002252055] | – | > 57 | > 57 | 40.8 | 8.4 | 6.5 | – | – | – | 5
10 | CN(CC(=O)Nc1c(Cl)cccc1Cl)C(=O)c1cccc(-n2cccc2)c1 [MLS001079471] | – | 10.2 | > 57 | > 57 | 4.2 | 11.5 | – | – | – | 2.5
11 | CCNc1nc(NCC)n2c(SCC(=O)Nc3ccc(OC(F)F)cc3)nnc2n1 [MLS001234379] | – | > 57 | > 57 | > 57 | 10.6 | 11.5 | – | – | – | 7.1
12 | Nc1c(S(=O)(=O)O)cc(NC(=O)c2ccccc2)c2c1C(=O)c1ccccc1C2=O [MLS001194971] | – | > 57 | > 57 | > 57 | 21.2 | 18.2 | – | – | – | 7.9
13 | O=S(=O)(Nc1ccccc1)c1cccc2nsnc12 [MLS000999698] | – | 40.8 | > 57 | > 57 | 7.5 | 22.9 | – | – | – | 10
14 | COc1cc(-c2nnc(COC(=O)c3ccc(C)o3)o2)cc(OC)c1OC [MLS001139127] | – | > 57 | > 57 | > 57 | 23.8 | 32.4 | – | – | 14.1 | –
15 | CCOc1ccc(NC(=O)c2cccc(-n3cccc3)c2)cc1S(=O)(=O)N1CCOCC1 [MLS002164959] | – | > 57 | > 57 | > 57 | 1.3 | 11.5 | – | – | – | 2.8
16 | COc1ccc(S(=O)(=O)N2CCN(C(=O)c3cc4c(s3)CCC4)CC2)cc1 [MLS002248682] | – | > 57 | > 57 | > 57 | 2.7 | 8.1 | – | – | – | 2
17 | c1ccc2c(NCCc3c[nH]c4ccccc34)c3ccccc3nc2c1 [MLS001195935] | – | > 57 | > 57 | 32.4 | 18.9 | 18.2 | – | – | 25.1 | –

Row | SMILES | MMS Assay (HeLa cells) | IC50 (APE1 [1]) [µM] | IC50 (E. coli Endo IV) [µM] | IC50 [2] [µM] | IC50 (APE1 [3]; [6]) [µM] | IC50 (APE1 [3]; [7]) [µM] | Radiotracer Assay (%Activity) (APE1 [4]) [%] | MMS Assay: potentiation of the genotoxic effect of methylmethane sulfonate (HeLa cells) | IC50 (APE1 [5]; [8]) [µM] | IC50 (APE1 [5]; [9]) [µM]
18 | Cc1ccc(NC(=O)CN(C)C(=O)c2cc(-c3ccco3)nc3ccccc23)cc1 [MLS001099510] | – | > 57 | > 57 | > 57 | 5.3 | 22.9 | – | – | – | 3.5
19 | COC(=O)c1cc(NC(=O)Cc2cccs2)cc(C(=O)OC)c1 [MLS001211293] | – | > 57 | > 57 | > 57 | 13.4 | – | – | – | – | 7.1
20 | COc1ccc(OCCOc2ccc(/C=C3\C(=N)N4N=C(C)SC4=NC3=O)cc2)cc1 [MLS001359901] | – | > 57 | > 57 | > 57 | 9.5 | 5.8 | – | – | 10 | –
21 | CC(=O)Nc1sc2c(c1-c1nc3ccccc3s1)CCN(C(C)C)C2 [MLS000419194] | P | 2.5 | – | > 57 | 14.1 | 3.9 | 2 | – | – | –
22 | Cc1ccc(NC(=O)C(c2ccccc2)N2CCN(CC(=O)N3CCOCC3)CC2)cc1Cl (stereo not drawn) [MLS002162303] | – | > 57 | > 57 | > 57 | 10.6 | 9.1 | – | – | – | 3.5
23 | Cc1cccc(NC(=O)CNC(=O)CCc2nc3sc4c(c3c(=O)[nH]2)CCCC4)c1C [MLS001156641] | – | > 57 | > 57 | 45.7 | 10.6 | 36.3 | – | – | – | 4
24 | Nc1c(C(=O)OCC(=O)Nc2cccc([N+](=O)[O-])c2)[nH]c(=O)[nH]c1=O [MLS002171489] | – | > 57 | > 57 | > 57 | 8.4 | 16.2 | – | – | – | 7.9
25 | CCNc1nc(NCC)n2c(SCC(=O)Nc3ccccc3C(F)(F)F)nnc2n1 [MLS001234389] | – | > 57 | > 57 | > 57 | 21.2 | 12.9 | – | – | 14.1 | –
26 | NS(=O)(=O)c1cc(C(=O)NC2CCSc3ccccc32)ccc1Cl (stereo not drawn) [MLS001233727] | – | > 57 | > 57 | > 57 | 0.1 | 0.3 | – | – | – | 0.1
27 | Nc1c(/C=C2/C=CC(=O)C(O)=C2)c(=O)nc2sc(CC(=O)N3CCCCC3)nn12 [MLS001139223] | – | > 57 | > 57 | > 57 | 1.9 | 2 | – | – | – | 2.5
28 | COc1ccc(Cl)cc1NC(=O)CCS(=O)(=O)c1ccc(Br)cc1 [MLS001202289] | – | > 57 | > 57 | 45.7 | 11.9 | 45.7 | – | – | 12.6 | –
29 | COc1ccc(NC(=O)COC(=O)c2cc3c(s2)CCC3)cc1 [MLS002159150] | – | 36.3 | > 57 | > 57 | 5.3 | 11.5 | – | – | – | 7.1
30 | NS(=O)(=O)c1cccc(NC(=O)c2ccc3nc[nH]c3c2)c1 [MLS001177378] | – | > 57 | > 57 | 32.4 | 26.7 | 45.7 | – | – | 12.6 | –
31 | Nc1nc(=S)c2ncn(C3OC(CO)C(O)C3O)c2[nH]1 (stereo not drawn) [MLS000738229] | – | > 57 | > 57 | 28.9 | 13.4 | 3.6 | – | – | – | 2.5
32 | O=C(COC(=O)/C=C/c1ccco1)Nc1ncc(Cl)cc1Cl [MLS000391557] | I | – | > 57 | > 57 | – | – | – | – | – | –
33 | COCCN(C(=O)COC(=O)c1cc2c(s1)CCC2)c1c(N)n(Cc2ccccc2)c(=O)[nH]c1=O [MLS001080179] | – | > 57 | > 57 | > 57 | 0.8 | 1.1 | – | – | – | 0.3
